Data taken from ChEMBL document CHEMBL4507315 (2021).

Assays:
[1] = target: Serine/threonine-protein kinase Sgk1 (Homo sapiens) (UniProt O00141); settings: Compound concentration 100.0 nM
[2] = test system: Mast/stem cell growth factor receptor Kit (Homo sapiens), P10721 [V559D,V654A]; settings: Compound concentration 100.0 nM
[3] = target: Muscle, skeletal receptor tyrosine-protein kinase (Homo sapiens) (UniProt O15146); settings: Compound concentration 100.0 nM
[4] = target: Serine/threonine-protein kinase SIK2 (Homo sapiens) (UniProt Q9H0K1); settings: Compound concentration 100.0 nM
[5] = target: Myosin light chain kinase (Homo sapiens) (UniProt Q32MK0); settings: Compound concentration 100.0 nM
[6] = target: Casein kinase II subunit alpha (Homo sapiens) (UniProt P68400); settings: Compound concentration 100.0 nM
[7] = target: Mitogen-activated protein kinase kinase kinase 15 (Homo sapiens) (UniProt Q6ZN16); settings: Compound concentration 100.0 nM
Chain of Mitogen-activated protein kinase kinase kinase 15 (Homo sapiens) (Q6ZN16 whole entry): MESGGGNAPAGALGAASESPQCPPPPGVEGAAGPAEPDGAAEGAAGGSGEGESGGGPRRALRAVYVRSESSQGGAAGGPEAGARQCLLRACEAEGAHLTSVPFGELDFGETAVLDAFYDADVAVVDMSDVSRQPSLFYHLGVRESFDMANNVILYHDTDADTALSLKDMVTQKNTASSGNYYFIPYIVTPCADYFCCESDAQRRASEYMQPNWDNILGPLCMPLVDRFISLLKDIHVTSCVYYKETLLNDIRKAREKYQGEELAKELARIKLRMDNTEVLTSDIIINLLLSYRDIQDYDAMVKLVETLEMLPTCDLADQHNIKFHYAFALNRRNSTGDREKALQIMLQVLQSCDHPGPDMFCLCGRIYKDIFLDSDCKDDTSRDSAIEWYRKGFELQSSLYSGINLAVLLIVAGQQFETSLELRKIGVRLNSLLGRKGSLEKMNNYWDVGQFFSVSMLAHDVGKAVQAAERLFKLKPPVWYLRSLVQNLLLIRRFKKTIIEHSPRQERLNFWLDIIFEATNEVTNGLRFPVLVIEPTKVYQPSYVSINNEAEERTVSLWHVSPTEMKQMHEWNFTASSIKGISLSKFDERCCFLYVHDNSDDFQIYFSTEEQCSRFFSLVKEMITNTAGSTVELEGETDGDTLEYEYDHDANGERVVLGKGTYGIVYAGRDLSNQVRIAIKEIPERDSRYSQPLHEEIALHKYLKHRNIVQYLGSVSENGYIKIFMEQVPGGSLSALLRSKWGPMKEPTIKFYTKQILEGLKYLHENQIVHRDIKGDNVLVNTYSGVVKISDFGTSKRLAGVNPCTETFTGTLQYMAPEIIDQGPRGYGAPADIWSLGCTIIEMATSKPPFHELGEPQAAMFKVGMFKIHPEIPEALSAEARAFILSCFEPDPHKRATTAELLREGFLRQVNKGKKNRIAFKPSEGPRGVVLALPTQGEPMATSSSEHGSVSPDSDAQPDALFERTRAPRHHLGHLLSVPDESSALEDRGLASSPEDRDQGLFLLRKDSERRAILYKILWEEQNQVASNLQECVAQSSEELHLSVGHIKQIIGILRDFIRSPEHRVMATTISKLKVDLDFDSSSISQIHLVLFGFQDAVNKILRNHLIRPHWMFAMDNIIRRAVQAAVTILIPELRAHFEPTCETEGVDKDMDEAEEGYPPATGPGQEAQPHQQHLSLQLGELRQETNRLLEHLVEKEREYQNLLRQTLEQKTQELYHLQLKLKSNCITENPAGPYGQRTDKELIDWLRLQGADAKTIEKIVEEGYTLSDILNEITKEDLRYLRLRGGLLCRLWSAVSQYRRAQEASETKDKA

[8] = target: Serine/threonine-protein kinase DCLK2 (Homo sapiens) (UniProt Q8N568); settings: Compound concentration 100.0 nM
[9] = target: Fibroblast growth factor receptor 3 (Homo sapiens) (UniProt P22607); settings: Compound concentration 100.0 nM
[10] = target: Ribosomal protein S6 kinase alpha-3 (Homo sapiens) (UniProt P51812); settings: Compound concentration 100.0 nM
[11] = target: Tyrosine-protein kinase ITK/TSK (Homo sapiens) (UniProt Q08881); settings: Compound concentration 100.0 nM
[12] = test system: Receptor-type tyrosine-protein kinase FLT3 (Homo sapiens), P36888 [UNDEFINED MUTATION]; settings: Compound concentration 100.0 nM
Chain of Receptor-type tyrosine-protein kinase FLT3 (Homo sapiens), P36888 [UNDEFINED MUTATION] (P36888 whole entry, looked up, change not shown): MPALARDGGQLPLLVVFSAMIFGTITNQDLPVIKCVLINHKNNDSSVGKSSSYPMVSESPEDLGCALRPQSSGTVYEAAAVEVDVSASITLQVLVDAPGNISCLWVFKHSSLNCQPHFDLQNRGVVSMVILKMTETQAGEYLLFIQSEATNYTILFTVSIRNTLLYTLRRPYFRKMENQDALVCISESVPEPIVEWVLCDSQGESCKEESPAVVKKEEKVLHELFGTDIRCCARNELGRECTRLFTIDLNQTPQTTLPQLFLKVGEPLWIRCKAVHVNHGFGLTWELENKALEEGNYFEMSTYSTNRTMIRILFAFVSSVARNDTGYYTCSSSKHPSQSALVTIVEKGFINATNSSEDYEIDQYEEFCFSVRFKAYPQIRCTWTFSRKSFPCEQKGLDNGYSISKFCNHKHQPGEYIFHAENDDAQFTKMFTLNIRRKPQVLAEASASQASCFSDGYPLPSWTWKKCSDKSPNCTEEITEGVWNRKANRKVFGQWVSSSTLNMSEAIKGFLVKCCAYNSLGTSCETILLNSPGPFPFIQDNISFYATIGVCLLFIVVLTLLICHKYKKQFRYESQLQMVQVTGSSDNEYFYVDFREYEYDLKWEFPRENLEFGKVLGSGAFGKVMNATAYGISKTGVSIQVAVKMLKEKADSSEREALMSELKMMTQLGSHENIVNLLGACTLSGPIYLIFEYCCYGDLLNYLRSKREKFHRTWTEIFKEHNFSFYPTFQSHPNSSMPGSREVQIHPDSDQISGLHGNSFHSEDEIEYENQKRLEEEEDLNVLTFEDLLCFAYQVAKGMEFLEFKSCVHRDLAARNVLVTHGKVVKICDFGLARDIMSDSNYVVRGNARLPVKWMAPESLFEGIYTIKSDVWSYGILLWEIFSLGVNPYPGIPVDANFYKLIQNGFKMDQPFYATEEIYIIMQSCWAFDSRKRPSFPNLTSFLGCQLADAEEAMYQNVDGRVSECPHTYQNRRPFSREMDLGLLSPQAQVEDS

[13] = target: Serine/threonine-protein kinase D3 (Homo sapiens) (UniProt O94806); settings: Compound concentration 100.0 nM
[14] = target: Eukaryotic translation initiation factor 2-alpha kinase 1 (Homo sapiens) (UniProt Q9BQI3); settings: Compound concentration 100.0 nM
[15] = target: Tyrosine-protein kinase ABL1 (Homo sapiens) (UniProt P00519); settings: Compound concentration 100.0 nM
[16] = target: Serine/threonine-protein kinase Nek4 (Homo sapiens) (UniProt P51957); settings: Compound concentration 100.0 nM
Chain of Serine/threonine-protein kinase Nek4 (Homo sapiens) (P51957 whole entry, looked up): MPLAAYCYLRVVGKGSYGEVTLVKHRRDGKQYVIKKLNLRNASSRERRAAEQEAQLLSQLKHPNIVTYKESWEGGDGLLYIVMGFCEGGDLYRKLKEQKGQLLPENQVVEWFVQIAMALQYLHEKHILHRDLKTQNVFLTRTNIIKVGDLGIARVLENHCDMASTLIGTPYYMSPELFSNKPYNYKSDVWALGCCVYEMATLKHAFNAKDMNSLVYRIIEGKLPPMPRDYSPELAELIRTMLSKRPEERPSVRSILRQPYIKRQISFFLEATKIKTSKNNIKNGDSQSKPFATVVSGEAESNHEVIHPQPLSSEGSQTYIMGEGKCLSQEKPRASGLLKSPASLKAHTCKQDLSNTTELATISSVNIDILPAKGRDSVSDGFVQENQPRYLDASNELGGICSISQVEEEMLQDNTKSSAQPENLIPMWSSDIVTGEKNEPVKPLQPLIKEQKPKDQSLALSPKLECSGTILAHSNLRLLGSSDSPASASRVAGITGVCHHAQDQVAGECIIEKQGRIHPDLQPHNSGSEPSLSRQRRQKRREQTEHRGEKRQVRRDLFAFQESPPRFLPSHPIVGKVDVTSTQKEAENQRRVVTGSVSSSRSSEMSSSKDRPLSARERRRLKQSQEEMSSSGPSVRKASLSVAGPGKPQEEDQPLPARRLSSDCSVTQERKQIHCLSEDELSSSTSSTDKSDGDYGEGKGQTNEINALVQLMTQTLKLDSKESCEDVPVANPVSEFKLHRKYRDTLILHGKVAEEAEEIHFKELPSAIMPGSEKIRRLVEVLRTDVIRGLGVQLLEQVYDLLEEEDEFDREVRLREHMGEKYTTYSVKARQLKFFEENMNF

[17] = target: Alpha-1B adrenergic receptor (Homo sapiens) (UniProt P35368); settings: Compound concentration 10.0 uM
[18] = target: Muscarinic acetylcholine receptor M2 (Homo sapiens) (UniProt P08172); settings: Compound concentration 10.0 uM
[19] = target: Phosphatidylinositol 3-kinase catalytic subunit type 3 (Homo sapiens) (UniProt Q8NEB9); settings: Compound concentration 100.0 nM
[20] = target: Serine/threonine-protein kinase SIK3 (Homo sapiens) (UniProt Q9Y2K2); settings: Compound concentration 100.0 nM
[21] = target: Mitogen-activated protein kinase kinase kinase 10 (Homo sapiens) (UniProt Q02779); settings: Compound concentration 100.0 nM
[22] = target: Ribosomal protein S6 kinase alpha-2 (Homo sapiens) (UniProt Q15349); settings: Compound concentration 100.0 nM
[23] = target: Vascular endothelial growth factor receptor 1 (Homo sapiens) (UniProt P17948); settings: Compound concentration 100.0 nM
[24] = target: Cyclin-dependent kinase 15 (Homo sapiens) (UniProt Q96Q40); settings: Compound concentration 100.0 nM
[25] = target: Receptor-interacting serine/threonine-protein kinase 2 (Homo sapiens) (UniProt O43353); settings: Compound concentration 100.0 nM
[26] = target: Aurora kinase A (Homo sapiens) (UniProt O14965); settings: Compound concentration 100.0 nM
[27] = target: Serine/threonine-protein kinase VRK2 (Homo sapiens) (UniProt Q86Y07); settings: Compound concentration 100.0 nM
Chain of Serine/threonine-protein kinase VRK2 (Homo sapiens) (Q86Y07 whole entry): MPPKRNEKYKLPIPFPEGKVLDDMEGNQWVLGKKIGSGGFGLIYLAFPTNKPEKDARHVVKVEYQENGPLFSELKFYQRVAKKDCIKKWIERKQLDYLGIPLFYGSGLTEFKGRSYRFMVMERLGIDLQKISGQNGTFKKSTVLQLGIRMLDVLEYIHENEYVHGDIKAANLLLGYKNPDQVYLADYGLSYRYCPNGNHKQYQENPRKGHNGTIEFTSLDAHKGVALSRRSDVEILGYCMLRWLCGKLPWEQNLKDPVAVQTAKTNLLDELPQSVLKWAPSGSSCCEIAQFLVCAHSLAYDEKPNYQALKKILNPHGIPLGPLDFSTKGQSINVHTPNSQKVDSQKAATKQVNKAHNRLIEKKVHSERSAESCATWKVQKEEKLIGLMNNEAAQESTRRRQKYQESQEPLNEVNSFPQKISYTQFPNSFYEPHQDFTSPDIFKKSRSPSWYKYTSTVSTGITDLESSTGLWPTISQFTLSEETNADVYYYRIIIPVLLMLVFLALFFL

[28] = target: Bone morphogenetic protein receptor type-2 (Homo sapiens) (UniProt Q13873); settings: Compound concentration 100.0 nM
[29] = target: Alpha-2B adrenergic receptor (Homo sapiens) (UniProt P18089); settings: Compound concentration 10.0 uM
[30] = target: Serine/threonine-protein kinase STK11 (Homo sapiens) (UniProt Q15831); settings: Compound concentration 100.0 nM
[31] = target: Hepatocyte growth factor receptor (Homo sapiens) (UniProt P08581); settings: Compound concentration 100.0 nM
Chain of Hepatocyte growth factor receptor (Homo sapiens) (P08581 whole entry): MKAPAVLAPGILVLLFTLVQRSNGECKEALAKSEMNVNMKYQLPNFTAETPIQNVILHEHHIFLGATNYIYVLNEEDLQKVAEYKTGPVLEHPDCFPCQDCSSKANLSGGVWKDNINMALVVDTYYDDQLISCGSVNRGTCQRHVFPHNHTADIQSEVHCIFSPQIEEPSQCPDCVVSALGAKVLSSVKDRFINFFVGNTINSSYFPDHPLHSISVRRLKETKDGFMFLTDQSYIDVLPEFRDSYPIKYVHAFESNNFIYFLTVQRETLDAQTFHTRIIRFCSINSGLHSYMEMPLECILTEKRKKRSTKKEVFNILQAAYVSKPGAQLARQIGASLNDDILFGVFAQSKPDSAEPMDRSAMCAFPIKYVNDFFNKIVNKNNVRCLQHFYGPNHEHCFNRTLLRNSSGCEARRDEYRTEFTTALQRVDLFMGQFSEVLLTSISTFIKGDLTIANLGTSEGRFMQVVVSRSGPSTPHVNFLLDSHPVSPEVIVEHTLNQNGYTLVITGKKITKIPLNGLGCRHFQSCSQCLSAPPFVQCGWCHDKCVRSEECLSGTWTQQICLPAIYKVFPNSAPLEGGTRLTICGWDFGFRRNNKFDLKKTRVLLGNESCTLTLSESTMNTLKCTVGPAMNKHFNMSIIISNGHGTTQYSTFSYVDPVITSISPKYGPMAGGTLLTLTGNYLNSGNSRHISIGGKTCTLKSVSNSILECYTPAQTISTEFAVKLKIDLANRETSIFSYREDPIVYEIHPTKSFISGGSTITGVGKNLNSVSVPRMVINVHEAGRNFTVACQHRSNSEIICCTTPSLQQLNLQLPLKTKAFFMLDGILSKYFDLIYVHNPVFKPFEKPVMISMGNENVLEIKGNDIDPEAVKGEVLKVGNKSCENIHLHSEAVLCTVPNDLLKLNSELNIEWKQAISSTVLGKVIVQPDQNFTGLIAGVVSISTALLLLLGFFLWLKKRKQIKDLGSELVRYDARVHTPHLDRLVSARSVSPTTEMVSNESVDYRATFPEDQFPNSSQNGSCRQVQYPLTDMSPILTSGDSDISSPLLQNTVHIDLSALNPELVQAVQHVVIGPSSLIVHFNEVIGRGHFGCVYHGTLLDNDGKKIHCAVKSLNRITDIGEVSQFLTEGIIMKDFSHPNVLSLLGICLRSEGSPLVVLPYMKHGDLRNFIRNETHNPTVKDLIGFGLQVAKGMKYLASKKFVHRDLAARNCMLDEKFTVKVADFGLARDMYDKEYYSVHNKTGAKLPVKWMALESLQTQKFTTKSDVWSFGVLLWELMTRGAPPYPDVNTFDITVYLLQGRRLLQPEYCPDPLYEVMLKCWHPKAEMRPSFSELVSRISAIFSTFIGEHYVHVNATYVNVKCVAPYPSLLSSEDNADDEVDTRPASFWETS

[32] = target: NUAK family SNF1-like kinase 1 (Homo sapiens) (UniProt O60285); settings: Compound concentration 100.0 nM
[33] = target: Serine/threonine-protein kinase DCLK1 (Homo sapiens) (UniProt O15075); settings: Compound concentration 100.0 nM
[34] = target: Serine/threonine-protein kinase 38-like (Homo sapiens) (UniProt Q9Y2H1); settings: Compound concentration 100.0 nM
[35] = target: Cyclin-dependent kinase 3 (Homo sapiens) (UniProt Q00526); settings: Compound concentration 100.0 nM
[36] = target: Dual specificity mitogen-activated protein kinase kinase 7 (Homo sapiens) (UniProt O14733); settings: Compound concentration 100.0 nM
[37] = target: Serine/threonine-protein kinase PRP4 homolog (Homo sapiens) (UniProt Q13523); settings: Compound concentration 100.0 nM
[38] = test system: Receptor-type tyrosine-protein kinase FLT3 (Homo sapiens), P36888 [UNDEFINED MUTATION]; settings: Compound concentration 100.0 nM; remark: listed apart in the source
[39] = target: Platelet-derived growth factor receptor beta (Homo sapiens) (UniProt P09619); settings: Compound concentration 100.0 nM
[40] = target: Receptor-interacting serine/threonine-protein kinase 1 (Homo sapiens) (UniProt Q13546); settings: Compound concentration 100.0 nM
[41] = test system: Phosphatidylinositol 4,5-bisphosphate 3-kinase catalytic subunit alpha isoform (Homo sapiens), P42336 [E545A]; settings: Compound concentration 100.0 nM
[42] = target: 5'-AMP-activated protein kinase catalytic subunit alpha-2 (Homo sapiens) (UniProt P54646); settings: Compound concentration 100.0 nM
[43] = target: Death-associated protein kinase 2 (Homo sapiens) (UniProt Q9UIK4); settings: Compound concentration 100.0 nM
[44] = target: Serine/threonine-protein kinase 17A (Homo sapiens) (UniProt Q9UEE5); settings: Compound concentration 100.0 nM

In the case of Nc1c(C(=O)NCc2ccc(C(=O)NCCCC3CCCCC3)cc2)cnn1-c1ccccc1 [SR-318], the residual activity [1] is reported as 100%, the residual activity [2] is reported as 100% and the residual activity [3] is reported as 97%. It also gave a residual activity [4] of 100%, a residual activity [5] of 100% and a residual activity [6] of 70%. It also gave a residual activity [7] of 100%, a residual activity [8] of 100% and a residual activity [9] of 100%. It also gave a residual activity [10] of 100%, a residual activity [11] of 93% and a residual activity [12] of 100%. It also gave a residual activity [13] of 92%, a residual activity [14] of 100% and a residual activity [15] of 97%. The residual activity [16] was 100%, the inhibition [17] was 8.69% and the inhibition [18] was 22.5%. It also gave a residual activity [19] of 99%, a residual activity [20] of 94% and a residual activity [21] of 85%. For the same molecule, the residual activity [22] was 100%, the residual activity [23] was 100% and the residual activity [24] was 95%. It also gave a residual activity [25] of 96%, a residual activity [26] of 100% and a residual activity [27] of 92%. For the same molecule, the residual activity [28] was 100%, the inhibition [29] was 17.7% and the residual activity [30] was 100%. For the same molecule, the residual activity [31] was 95%, the residual activity [32] was 100% and the residual activity [33] was 100%. It also gave a residual activity [34] of 44%, a residual activity [35] of 100% and a residual activity [36] of 99%. The residual activity [37] was 100%, the residual activity [38] was 90% and the residual activity [39] was 100%. It also gave a residual activity [40] of 100%, a residual activity [41] of 100% and a residual activity [42] of 100%. For the same molecule, the residual activity [43] was 100% and the residual activity [44] was 100%.
O=C(NCCCC1CCCCC1)c1ccc(CNC(=O)c2cnn(-c3ccccc3)c2C(F)(F)F)cc1 [SR-321] showed a residual activity [1] of 100%, a residual activity [2] of 100% and a residual activity [3] of 100%. The residual activity [4] was 100%, the residual activity [5] was 92% and the residual activity [6] was 94%. For the same molecule, the residual activity [7] was 84%, the residual activity [8] was 100% and the residual activity [9] was 100%. It also gave a residual activity [10] of 100%, a residual activity [11] of 100% and a residual activity [12] of 100%. For the same molecule, the residual activity [13] was 99%, the residual activity [14] was 95% and the residual activity [15] was 88%. The residual activity [16] was 100%, the inhibition [17] was -3.62% and the inhibition [18] was 19.3%. The residual activity [19] was 100%, the residual activity [20] was 76% and the residual activity [21] was 87%. For the same molecule, the residual activity [22] was 100%, the residual activity [23] was 100% and the residual activity [24] was 77%. For the same molecule, the residual activity [25] was 97%, the residual activity [26] was 100% and the residual activity [27] was 100%. The residual activity [28] was 100%, the inhibition [29] was 1.13% and the residual activity [30] was 100%. The residual activity [31] was 100%, the residual activity [32] was 100% and the residual activity [33] was 100%. It also gave a residual activity [34] of 20%, a residual activity [35] of 100% and a residual activity [36] of 100%. It also gave a residual activity [37] of 100%, a residual activity [38] of 100% and a residual activity [39] of 100%. It also gave a residual activity [40] of 89%, a residual activity [41] of 100% and a residual activity [42] of 100%. For the same molecule, the residual activity [43] was 98% and the residual activity [44] was 100%.
